This note sets out measurements from PubChem BioAssay AID588846 (Broad Institute, 2011).

Test [1] can be described thus: cytotoxicity in control HMLE_shGFP mammary epithelial cells, dose response, counter-screen for breast cancer stem cell killers, cell-based, CellTiter-Glo luminescence, dry powder, set 2 (AID 588846). To be noted: HMLE_shGFP viability, CellTiter-Glo luminescence, 72 h; at 32 µM (top of the series). For orientation: The purpose of a counterscreen is to sort out artefacts and off-target activity.

The test system of test [2] is HMLE_shGFP viability, CellTiter-Glo luminescence, 72 h. The description is as above.

Active and inactive are the calls of the source. The rule behind the calls is not given here.

Regarding `O=C(/C=C/c1ccc(Cl)c(Cl)c1)NC1=NCCS1`, the viability fraction in test [1] was 22.2% (inactive).

As for `O=C(/C=C/c1ccc(-c2ccccc2)cc1)NC1=NCCS1`, in test [1], the viability fraction is 13.7% (inactive).

The AC50 is the midpoint of the concentration-response curve, whichever way the signal moves. Consider `Cc1csc(NC(=O)c2ccc(COc3cccc(F)c3)o2)n1`, for which the concentration at half-maximal activity (AC50) in test [2] is 4.4 µM.

For the molecule `Cc1csc(NC(=O)c2ccc(CNc3ccccn3)o2)n1`, the viability fraction in test [1] was 80.2% (inactive).

As for `O=C(NC1CCCC1)c1ccc(COc2ccccc2)o1`, the viability fraction in test [1] is 95.7% (inactive).

Take `Cc1ccc(/C=C/C(=O)NC2=NCCS2)cc1`: the viability fraction in test [1] was 88.1% (inactive).

Consider `COc1ccc(/C=C/C(=O)NC2=NCCS2)c(OC)c1`, for which the AC50 in test [2] is 30 µM.

On to `Cc1csc(NC(=O)c2ccc(COc3ccccc3F)o2)n1`, for which the AC50 in test [2] is 0.36 µM.

For the molecule `CCc1ccc(/C=C/C(=O)NC2=NCCS2)cc1`, in test [1], the viability fraction is 92.9% (inactive).

Consider `CC(C)c1ccc(/C=C/C(=O)NC2=NCCS2)cc1`, for which the viability fraction in test [1] is 14% (inactive).
